These results are taken from PubChem BioAssay AID250 (DTP/NCI, 2004).

For the experiment, the system named is BDF1 mice, L1210 leukemia sc, survival T/C. Put plainly: NCI In Vivo Anticancer Drug Screen. Data for tumor model L1210 Leukemia (subcutaneous) in B6D2F1 (BDF1) mice. The conditions noted are these: higher = longer survival. The gist of the method: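 Antitumor activity is assessed in mice with transplanted tumors by comparing the treated group (T) with the vehicle control group (C).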

Several values for one entry are separate records, joined by “and”; a condition that tells them apart may be missing. Equal values may be shown once. Inconclusive results and toxic doses are left out.

Regarding `CC[C@](O)(C(=O)O)c1cc2n(c(=O)c1CO)Cc1cc3ccccc3nc1-2`, the T/C is 104 % of control (endpoint: median survival time, dose: 0.5 mg/kg/injection, schedule: Q01DX009 (ip), vehicle: saline); 104 % of control (endpoint: median survival time, dose: 0.5 mg/kg/injection, schedule: Q01DX009 (sc), vehicle: saline); 102 % of control (endpoint: median survival time, dose: 1.0 mg/kg/injection, schedule: Q01DX009 (ip), vehicle: saline); 104 % of control (endpoint: median survival time, dose: 1.0 mg/kg/injection, schedule: Q01DX009 (sc), vehicle: saline); 116 % of control (endpoint: median survival time, dose: 2.0 mg/kg/injection, schedule: Q01DX009 (ip), vehicle: saline); 110 % of control (endpoint: median survival time, dose: 2.0 mg/kg/injection, schedule: Q01DX009 (sc), vehicle: saline). The T/C reads like this: (endpoint: median survival time, dose: 6.25 mg/kg/injection, schedule: Q02DX005 (sc), vehicle: saline) 115 % of control and 120 % of control; (endpoint: median survival time, dose: 6.25 mg/kg/injection, schedule: Q04DX003 (sc), vehicle: saline) 115 % of control and 116 % of control; (endpoint: median survival time, dose: 8.4 mg/kg/injection, schedule: Q04DX003 (sc), vehicle: saline) 122 % of control and 123 % of control; (endpoint: median survival time, dose: 12.5 mg/kg/injection, schedule: Q02DX005 (sc), vehicle: saline) 156 % of control; (endpoint: median survival time, dose: 14.0 mg/kg/injection, schedule: Q07DX003 (sc), vehicle: saline) 115 % of control and 122 % of control; (endpoint: median survival time, dose: 18.0 mg/kg/injection, schedule: Q04DX003 (sc), vehicle: saline) 118 % of control and 120 % of control. Moreover, the T/C runs as follows: (endpoint: median survival time, dose: 18.0 mg/kg/injection, schedule: Q07DX003 (sc), vehicle: saline) 118 % of control and 120 % of control; (endpoint: median survival time, dose: 20.0 mg/kg/injection, schedule: Q07DX003 (sc), vehicle: saline) 120 % of control and 121 % of control; (endpoint: median survival time, dose: 23.0 mg/kg/injection, schedule: Q07DX003 (sc), vehicle: saline) 120 % of control and 122 % of control; (endpoint: median survival time, dose: 25.0 mg/kg/injection, schedule: Q02DX005 (sc), vehicle: saline) 165 % of control and 170 % of control; (endpoint: median survival time, dose: 25.0 mg/kg/injection, schedule: Q07DX003 (sc), vehicle: saline) 150 % of control and 151 % of control; (endpoint: median survival time, dose: 30.0 mg/kg/injection, schedule: Q04DX003 (sc), vehicle: saline) 120 % of control. Further, the T/C is, setting by setting: (endpoint: median survival time, dose: 30.0 mg/kg/injection, schedule: Q07DX003 (sc), vehicle: saline) 120 % of control and 121 % of control; (endpoint: median survival time, dose: 32.0 mg/kg/injection, schedule: Q07DX003 (sc), vehicle: saline) 155 % of control and 158 % of control; (endpoint: median survival time, dose: 39.0 mg/kg/injection, schedule: Q07DX003 (sc), vehicle: saline) 120 % of control and 122 % of control; (endpoint: median survival time, dose: 39.0 mg/kg/injection, schedule: Q09DX003 (sc), vehicle: saline) 116 % of control and 117 % of control; (endpoint: median survival time, dose: 40.0 mg/kg/injection, schedule: Q04DX003 (sc), vehicle: saline) 160 % of control and 181 % of control; (endpoint: median survival time, dose: 50.0 mg/kg/injection, schedule: Q01DX001 (sc), vehicle: saline) 118 % of control and 120 % of control. The T/C is, setting by setting: (endpoint: median survival time, dose: 62.0 mg/kg/injection, schedule: Q07DX003 (sc), vehicle: saline) 175 % of control and 176 % of control; (endpoint: median survival time, dose: 65.0 mg/kg/injection, schedule: Q07DX003 (sc), vehicle: saline) 121 % of control and 122 % of control; (endpoint: median survival time, dose: 65.0 mg/kg/injection, schedule: Q09DX003 (sc), vehicle: saline) 122 % of control; (endpoint: median survival time, dose: 78.0 mg/kg/injection, schedule: Q07DX003 (sc), vehicle: saline) 180 % of control and 181 % of control; (endpoint: median survival time, dose: 80.0 mg/kg/injection, schedule: Q04DX003 (sc), vehicle: saline) 115 % of control and 118 % of control; (endpoint: median survival time, dose: 80.0 mg/kg/injection, schedule: Q07DX003 (sc), vehicle: saline) 120 % of control and 123 % of control. Also, the T/C reads like this: (endpoint: median survival time, dose: 83.3 mg/kg/injection, schedule: Q01DX001 (sc), vehicle: saline) 120 % of control and 121 % of control; (endpoint: median survival time, dose: 98.0 mg/kg/injection, schedule: Q07DX003 (sc), vehicle: saline) 118 % of control and 120 % of control; (endpoint: median survival time, dose: 108.0 mg/kg/injection, schedule: Q07DX003 (sc), vehicle: saline) 120 % of control and 122 % of control; (endpoint: median survival time, dose: 108.0 mg/kg/injection, schedule: Q09DX003 (sc), vehicle: saline) 122 % of control; (endpoint: median survival time, dose: 122.0 mg/kg/injection, schedule: Q07DX003 (sc), vehicle: saline) 118 % of control and 120 % of control; (endpoint: median survival time, dose: 148.0 mg/kg/injection, schedule: Q01DX001 (sc), vehicle: saline) 110 % of control. Further, the T/C is 90 % of control and 93 % of control (endpoint: median survival time, dose: 160.0 mg/kg/injection, schedule: Q04DX003 (sc), vehicle: saline); 110 % of control and 122 % of control (endpoint: median survival time, dose: 160.0 mg/kg/injection, schedule: Q07DX003 (sc), vehicle: saline); 116 % of control and 118 % of control (endpoint: median survival time, dose: 180.0 mg/kg/injection, schedule: Q09DX003 (sc), vehicle: saline); 150 % of control (endpoint: median survival time, dose: 191.0 mg/kg/injection, schedule: Q07DX003 (sc), vehicle: saline); 110 % of control (endpoint: median survival time, dose: 246.0 mg/kg/injection, schedule: Q01DX001 (sc), vehicle: saline); 100 % of control and 101 % of control (endpoint: median survival time, dose: 300.0 mg/kg/injection, schedule: Q09DX003 (sc), vehicle: saline). Besides, the T/C (endpoint: median survival time, dose: 320.0 mg/kg/injection, schedule: Q07DX003 (sc), vehicle: saline) is 90 % of control; the T/C (endpoint: median survival time, dose: 468.0 mg/kg/injection, schedule: Q07DX003 (sc), vehicle: saline) is 120 % of control and 121 % of control; the T/C (endpoint: median survival time, dose: 731.0 mg/kg/injection, schedule: Q07DX003 (sc), vehicle: saline) was 90 % of control and 93 % of control; the T/C (endpoint: median survival time, dose: 800.0 mg/kg/injection, schedule: Q07DX003 (sc), vehicle: saline) is 88 % of control.

Consider `CS(=O)(=O)Nc1ccc(Nc2c3ccccc3nc3ccccc23)cc1`, for which the T/C was 96 % of control (endpoint: mean survival time, dose: 10.0 mg/kg/injection, schedule: Q01DX009 (ip), vehicle: saline); 103 % of control (endpoint: mean survival time, dose: 20.0 mg/kg/injection, schedule: Q01DX009 (ip), vehicle: saline); 111 % of control (endpoint: mean survival time, dose: 40.0 mg/kg/injection, schedule: Q01DX009 (ip), vehicle: saline); 90 % of control (endpoint: mean survival time, dose: 80.0 mg/kg/injection, schedule: Q01DX009 (ip), vehicle: saline).

With `[I][Hg][CH2]C1COC([CH2][Hg][I])CO1` (stereo unspecified), the T/C runs as follows: (endpoint: median survival time, dose: 14.0 mg/kg/injection, schedule: Q01DX Z (sc), vehicle: other) 100 % of control; (endpoint: median survival time, dose: 23.0 mg/kg/injection, schedule: Q01DX Z (sc), vehicle: other) 100 % of control; (endpoint: median survival time, dose: 39.0 mg/kg/injection, schedule: Q01DX Z (sc), vehicle: other) 105 % of control; (endpoint: median survival time, dose: 65.0 mg/kg/injection, schedule: Q01DX Z (sc), vehicle: other) 100 % of control; (endpoint: median survival time, dose: 108.0 mg/kg/injection, schedule: Q01DX Z (sc), vehicle: other) 111 % of control.

`S=P(N1CCCCCC1)(N1CC1)N1CC1`: the T/C runs as follows: (endpoint: median survival time, dose: 4.7 mg/kg/injection, schedule: Q01DX Z (sc), vehicle: saline) 100 % of control; (endpoint: median survival time, dose: 7.8 mg/kg/injection, schedule: Q01DX Z (sc), vehicle: saline) 111 % of control; (endpoint: median survival time, dose: 8.4 mg/kg/injection, schedule: Q01DX Z (sc), vehicle: saline) 111 % of control; (endpoint: median survival time, dose: 13.0 mg/kg/injection, schedule: Q01DX Z (sc), vehicle: saline) 100 % of control; (endpoint: median survival time, dose: 14.0 mg/kg/injection, schedule: Q01DX Z (sc), vehicle: saline) 111 % of control; (endpoint: median survival time, dose: 21.6 mg/kg/injection, schedule: Q01DX Z (sc), vehicle: saline) 111 % of control. The T/C is 111 % of control (endpoint: median survival time, dose: 23.0 mg/kg/injection, schedule: Q01DX Z (sc), vehicle: saline); 116 % of control (endpoint: median survival time, dose: 36.0 mg/kg/injection, schedule: Q01DX Z (sc), vehicle: saline); 122 % of control (endpoint: median survival time, dose: 39.0 mg/kg/injection, schedule: Q01DX Z (sc), vehicle: saline); 166 % of control (endpoint: median survival time, dose: 60.0 mg/kg/injection, schedule: Q01DX Z (sc), vehicle: saline); 116 % of control (endpoint: median survival time, dose: 65.0 mg/kg/injection, schedule: Q01DX Z (sc), vehicle: saline); 161 % of control (endpoint: median survival time, dose: 100.0 mg/kg/injection, schedule: Q01DX Z (sc), vehicle: saline). Also, the T/C (endpoint: median survival time, dose: 108.0 mg/kg/injection, schedule: Q01DX Z (sc), vehicle: saline) is 155 % of control.

Regarding `Nc1nncs1`, the T/C (endpoint: median survival time, dose: 50.0 mg/kg/injection, schedule: Q04DX004 (sc), vehicle: water) is 111 % of control; the T/C (endpoint: median survival time, dose: 100.0 mg/kg/injection, schedule: Q04DX004 (sc), vehicle: water) is 101 % of control; the T/C (endpoint: median survival time, dose: 200.0 mg/kg/injection, schedule: Q04DX004 (sc), vehicle: water) is 106 % of control; the T/C (endpoint: median survival time, dose: 200.0 mg/kg/injection, schedule: Q08DX003 (sc), vehicle: water) was 101 % of control; the T/C (endpoint: median survival time, dose: 400.0 mg/kg/injection, schedule: Q04DX004 (sc), vehicle: water) was 111 % of control; the T/C (endpoint: median survival time, dose: 400.0 mg/kg/injection, schedule: Q08DX003 (sc), vehicle: water) is 108 % of control. For the same compound, the T/C is 109 % of control (endpoint: median survival time, dose: 800.0 mg/kg/injection, schedule: Q08DX003 (sc), vehicle: water) and 117 % of control (endpoint: median survival time, dose: 1600.0 mg/kg/injection, schedule: Q08DX003 (sc), vehicle: water).
